PMC12030062, “From In Vitro Cytotoxicity to In Vivo Zebrafish Assays: A Study on 3,3-Dichloro β-, γ- and δ-Lactams and Their Biological Activity Profiles” (Pharmaceuticals, 2025)

Key:
[1] = tested on: murine Swiss albino fibroblast (3T3) cell line; assay: Cell viability, NRU assay, 3T3; assay type: cell-based; conditions: Mus musculus, 24 h incubation, NRU endpoint
Description: Two different endpoints, 3-(4,5-dimethyl-2-thiazolyl)-2,5-diphenyltetrazolium bromide (MTT) and neutral red uptake (NRU), were used to assess differences in cell-induced cytotoxicity. […] In addition, NRU evaluates the interaction of these drugs with the plasmatic membrane. Cell responses were determined from the MTT [16] and NRU [17] assays, using the two proposed cell lines. Cytotoxicity assays were performed at concentrations equal to 80 and 250 µg/mL. The IC50 value, referring to the half-maximal inhibitory concentration, was determined as a key parameter in cytotoxicity studies (Table 1). It plays a crucial role in evaluating cell viability and assessing cellular responses to various drugs or toxins. For cases where IC50 values were below 80 µg/mL, additional studies at lower concentrations were conducted to accurately determine these values. […] The selectivity index (SI), used as a measurement of action against the tumor cell line in comparison with a normal cell line, was also included.
• In Vitro Assay Using Human Erythrocytes • - Acquisition and Extraction of the Erythrocytes Human blood samples were obtained from the Banc de Sang i Teixits de Barcelona (Spain) from the Catalan Department of Health. Blood was deposited in tubes with the anticoagulant EDTA-K3. Blood samples were centrifuged at 3000 rpm and 4 °C for 10 min (Megafuge 2.0 R. Heraeus Instruments, Hanau, Germany) to induce sedimentation. Plasma was extracted with a Pasteur pipette. Next, the residual pellet was washed with PBS at pH 7.4. This procedure was repeated three times to remove residual leukocytes and platelets and to concentrate the erythrocytes. Following the last wash, the erythrocyte suspension was diluted (1:1) in PBS at pH 7.4 to obtain a suitable erythrocyte suspension (cell density of 8 × 10^9 cell/mL). • - Hemolysis Assay The hemolysis assay determined the capability of different compounds to induce the hemolysis of the erythrocyte membrane. Stock solutions of each compound at 1 mg/mL in PBS at pH 7.4 were prepared. Different volumes (10–80 μL) were placed in polystyrene tubes, and an aliquot of 25 µL of the erythrocyte suspensions was added to each tube. The final volume was 1 mL. The tubes were incubated at room temperature under rotatory conditions. Then, the tubes were centrifuged at 10,000 rpm for 5 min. The supernatants’ absorbance at 540 nm (Shimadzu UV-160A, Shimadzu, Duisburg, Germany) was compared with that of the positive (erythrocytes hemolyzed with distilled water) and negative (erythrocyte suspension in PBS at pH 7.4) controls. The degree of hemolysis was determined using the following equation: Hemolysis (%) = 100 × (Abs − Abs0)/(Abs100 − Abs0) where Abs, Abs0, and Abs100 are the absorbance of the test samples, of the suspension treated with isotonic phosphate–buffered saline (PBS), and of the suspension of complete hemolysis treated with distilled water, respectively. • In Vitro Essay Using Cell Cultures The murine Swiss albino fibroblasts (3T3) and the squamous cell carcinoma (A431) cell lines were obtained from Celltec UB. Cells were grown in DMEM medium (4.5 g/L glucose) supplemented with 10% (v/v) FBS, 2 mM L-glutamine, 100 U/mL penicillin, and 100 µg/mL streptomycin at 37 °C with 5% CO2. Cells were routinely cultured in 75 cm^2 culture flasks and were trypsinized using trypsin–EDTA when the cells reached approximately 80% confluence. The trypan blue assay, which allows for the direct identification and enumeration of the live (unstained) and dead (blue) cells in the cell population, was used to evaluate the viability of the cells in the cell suspension obtained. • - Cell Viability Assays Cell lines of 3T3 (1 × 10^5 cells/mL) and A431 (5 × 10^4 cells/mL) were grown at defined densities in the 60 central wells of a 96-well plate. The cells were incubated for 24 h in 5% CO2 at 37 °C. […]

Zebrafish embryos = assay type: in vivo; conditions: 74 hpf after 2-h washout; all tested concentrations up to 3.4 µg/mL
Description: Additionally, at 74 hpf, following a 2-h washout period, the response to a tactile stimulus or touch-evoked response, also known as a TER, was evaluated in embryos. This assay requires the embryos to have proper neuromuscular function. […] Further studies might be needed to elucidate the specific mechanisms by which the compound affects neurodevelopment or motor function and to determine whether these effects translate to other organisms. These findings are consistent with the broader body of research on anticancer agents, highlighting the importance of neurotoxicity evaluation in drug development and reinforcing the need for ongoing research to address these concerns. The videos and figures related to this part of the work are available in the Supplementary Materials.
• Zebrafish egg production and exposure The study was conducted in accordance with the local legislation and institutional requirements, according to the Generalitat de Catalunya Decree 53/2013, which regulates the use of animals for experimental and other scientific purposes. […] At the end of the test, dysmorphogenesis was evaluated in the live embryos only. The average lethality and dysmorphogenesis were calculated for 10 embryos per concentration, followed by averaging the results of at least three independent experiments. […]

CC(C)(C)N1C(=O)C(Cl)(Cl)C1c1ccccc1 (centres unmarked) [Compound 1]
IC50 [1]: > 250 µg/mL | touch-evoked response (TER), swimming distance (Zebrafish embryos): significant neurodevelopmental adverse effect
